# Test results from patent US20220202811A1, “TREATMENT FOR RETINOIC ACID RECEPTOR-RELATED ORPHAN RECEPTOR Ɣ (RORƔ)-DEPENDENT CANCERS” (The Regents of the University of California, priority 2019, published 2022).
# Entries after “also recorded” stand apart in the source; their conditions may differ.
# Key:
# KP^f/fC organoids = assay: KP^f/fC organoid culture assay; format: cell-based, mouse
# Description: Organoids from REM2-KP^f/fC were passaged at ˜1:2 as previously described (Boj et al., 2015). Briefly, organoids were isolated using Cell Recovery Solution (Corning 354253), then dissociated using Accumax Cell Dissociation Solution (Innovative Cell Technologies AM105), and plated in 20 μl matrigel (BD Biosciences, 354230) domes on a pre-warmed 48-well plate. After incubation at 37° C. for 5 min, domes were covered with 300 μl PancreaCult Organoid Growth Media (Stemcell Technologies). […] Organoids were grown in the presence of vehicle or SR2211 for 4 days, then imaged and quantified, n=3 independent wells plated per dose per treatment group.
# KP^f/fC organoid were derived from the REM2-KP^f/fC mice, a germline genetically engineered mouse model for pancreatic ductal adenocarcinoma with the genotype of Msi2^eGFP/Kras^LSL-G12D/+; Pdx^CRE/+; p53^f/f. Briefly, tumors from 10-12-week-old end-stage REM2-KP^f/fC mice were harvested and dissociated into a single cell suspension. Tumor cells were stained with FC block then 0.2 μg/10^6 cells anti-EpCAM APC (eBioscience). REM2+/EpCAM+ (stem) and REM2−/EpCAM+ (non-stem) cells were sorted, resuspended in 20 μl Matrigel (BD Biosciences, 354230), and plated as a dome in a pre-warmed 48-well plate. After incubation at 37° C. for 5 min, domes were covered with 300 μl PancreaCult Organoid Growth Media (Stemcell Technologies). Organoids were imaged and quantified 6 days later. All images were acquired on a Zeiss Axiovert 40 CFL. Organoids were counted and measured using ImageJ 1.51s software.
# The derived KP^f/fC organoid were maintained and passaged at ˜1:2. Briefly, organoids were isolated using Cell Recovery Solution (Corning 354253), then dissociated using Accumax Cell Dissociation Solution (Innovative Cell Technologies AM105), and plated in 20 μl Matrigel (BD Biosciences, 354230) domes on a pre-warmed 48-well plate. After incubation at 37° C. for 5 min, domes were covered with 300 μl PancreaCult Organoid Growth Media (Stemcell Technologies).
# About 4,000 organoids from each of the non-germline and germline mouse models were plated as single cells in multi-well plates, as described above, and treated with JTE-151 for 4 days (FIG. 48). Organoid number and size were analyzed after treatment. […] In the quantification, different doses of JTE-151 were plotted along the horizontal axis, and the volume of organoids was expressed as relative to control along the vertical axis. […] Organoid volume was then analyzed. Different doses of JTE-151 were plotted along the horizontal axis, and the vertical axis represents relative organoid volume to control.
# [1] = test system: primary patient-derived PDX1424 cancer cells; assay: PDX1424 xenografts in mice; format: in vivo, human
# Description: FIG. 45 is a compilation of all data from mice bearing PDX or FG cancer xenographs, including PDX1424, PDX1444, and FG.
# Finally, the impact of JTE-151 was examined in vivo on mice bearing primary patient-derived pancreatic cancer xenografts (FIGS. 70-78). […] FIGS. 70-72 show 3 rounds of treatment in an experiment using mice bearing PDX1356 xenographs. The horizontal axis of the first panel in each of FIGS. 70-72 represents days of treatment, and the vertical axis represents tumor volume. The horizontal axis of each of the remaining panels represents the target (vehicle vs. JTE-151 mouse), and the vertical axis represents the specified measurement. JTE-151 was given at the regimen as specified in the figures. For example, in the first round (FIG. 70), JTE-151 was given at 90 mg/kg body weight once per day for the first 25 days, then twice per day from day 26 though day 40.
# Two other primary patient-derived xenografts, PDX1535 (FIGS. 74 and 75) and PDX1424 (FIGS. 76 and 77), were tested using JTE-151 at 90 mg/kg once per day. […] Considering the reduced tumor mass and cell numbers, the absence of a significant change in tumor volume may be due to necrotic cells that remained for a while post drug treatment.
# [2] = test system: primary patient-derived PDX1535 organoids; assay: PDX1535 organoid assay; format: cell-based, human
# Description: PDX1535 organoids were derived from a patient of pancreatic cancer. Primary patient organoids were established by digesting patient-derived xenografts for 1 hour at 37° C. in RPMI containing 2.5% FBS, 5 mg/ml Collagenase II, and 1.25 mg/ml Dispase II, followed by passage through a […] mesh filter. Cells were plated at a density of 1.5×10^5 cells per 50 μl Matrigel. After domes were solidified, growth medium was added as follows: RPMI containing 50% Wnt3a conditioned media, 10% RSpondin1-conditioned media, 2.5% FBS, 50 ng/ml EGF, 5 mg/ml Insulin, 12.5 ng/ml hydrocortisone, and 14 μM Rho Kinase Inhibitor. After establishment, organoids were passaged and maintained. Briefly, organoids were isolated using Cell Recovery Solution (Corning 354253), then dissociated into single cell suspension with TrypLE Express (ThermoFisher 12604) supplemented with 25 μg/ml DNase I (Roche) and 14 μM Rho Kinase Inhibitor (Y-27632, Sigma). Cells were split 1:2 into 20 μl domes plated on pre-warmed 48-well plates. Domes were incubated at 37° C. for 5 min, then covered with human complete organoid feeding media without Wnt3a-conditioned media. […] The organoids were imaged and measured at the end of treatment. […] Moreover, the anti-cancer effect of JTE-151 was determined in an organoid assay using pancreatic cancer cells derived from mice bearing primary patient-derived xenografts.
# [3] = test system: primary patient-derived organoids; assay: compilation of primary patient-derived organoids; format: cell-based, human
# [4] = test system: tumor-bearing KP^f/fC mice; assay: tumor-bearing KP^f/fC mice in vivo (AZD-0284, JTE-151); design: species or system mouse
# [5] = 3 μM AZD-0284 + 0.025 nM gemcitabine
# [6] = 6 μM AZD-0284 + 0.025 nM gemcitabine
# [7] = 12 μM AZD-0284 + 0.025 nM gemcitabine
# [8] = AZD-0284 90 mg/kg once daily + gemcitabine 25 mg/kg once weekly, 3 weeks
# [9] = 30 mg/kg JTE-151 once daily for about 3 weeks (FIG. 52)
# [10] = 90 mg/kg JTE-151, 3 weeks, compilation (FIG. 57)
# [11] = 90 mg/kg JTE-151, 3 weeks, individual experiments (FIGS. 53-55)
# [12] = JTE-151 at either 30 mg/kg or 90 mg/kg, 3 weeks (FIG. 58)
compound,measurement,setting,value
OC(c1ccc(-c2ccc(CN3CCN(Cc4ccncc4)CC3)cc2)c(F)c1)(C(F)(F)F)C(F)(F)F [SR2211],organoid formation,KP^f/fC organoids; SR2211 vs vehicle,decreased
CC(=O)N1Cc2cc(S(C)(=O)=O)ccc2[C@@H]1C(=O)Nc1ccc(C(O)(C(F)(F)F)C(F)(F)F)cc1 [AZD-0284],decrease in organoid volume compared to control,KP^f/fC organoids; [5],3.72 fold
same,organoid growth in volume,KP^f/fC organoids; 3 μM AZD-0284 in combination with 0.02 nM gemcitabine,visibly decreased; also recorded: inhibited
same,decrease in organoid volume compared to control,KP^f/fC organoids; [6],5.81 fold
same,organoid volume,KP^f/fC organoids; 6 μM AZD-0284 alone,visibly reduced; also recorded: inhibited
same,organoid volume,KP^f/fC organoids; 6 μM AZD-0284 and 0.025 nM gemcitabine combination,visibly reduced; also recorded: inhibited
same,decrease in organoid volume compared to control,KP^f/fC organoids; [7],10.53 fold
same,organoid growth,"KP^f/fC organoids; AZD-0284 alone, 6 μM or 12 μM (FIG. 32)",significant inhibitory effect
same,EpCam+ tumor epithelial cells,[1]; 60 mg/kg AZD-0284 for 3 weeks,significant reduction
same,EpCam+/CD133+ tumor stem cells,[1]; 60 mg/kg AZD-0284 for 3 weeks,significant reduction
same,decrease in organoid volume compared to control,[2]; [5],2.81 fold
same,organoid volume,[2]; 3 μM AZD-0284 and 0.04 nM gemcitabine,significant reduction; also recorded: significant inhibition
same,decrease in organoid volume compared to control,[2]; [6],4.72 fold
same,organoid growth,[2]; 6 μM AZD-0284 alone,visibly inhibited
same,organoid growth,[2]; 6 μM AZD-0284 in combination with 0.025 nM gemcitabine,visibly inhibited
same,decrease in organoid volume compared to control,[2]; [7],6.90 fold
same,organoid volume,"[2]; AZD-0284 alone, 6 μM or 12 μM (FIG. 37)",significantly reduced
same,organoid growth,"[3]; AZD-0284 at 3 μM and more so at 6 μM, PDX1356 and PDX1535 (FIG. 40)",significantly inhibited
same,EpCam+ tumor epithelial cells,[4]; 90 mg/kg AZD-0284 alone,loss
same,EpCam+/CD133+ tumor stem cells,[4]; 90 mg/kg AZD-0284 alone,loss
same,cell number,[4]; 90 mg/kg AZD-0284 alone,lower
same,tumor mass,[4]; 90 mg/kg AZD-0284 alone,lower
same,EpCam+ tumor epithelial cells,[4]; [8],loss
same,EpCam+/CD133+ tumor stem cells,[4]; [8],loss
same,cell number,[4]; [8],lower
"Cc1ccc(NC(=O)C[C@H](CCC(=O)O)c2noc([C@H]3C[C@@H](CC(C)(C)C)C3)c2C2CC2)c(Cl)c1 [JTE-151, (4S)-6-[(2-chloro-4-methylphenyl)amino]-4-{4-cyclopropyl-5-[cis-3-(2,2-dimethylpropyl)cyclobutyl]isoxazol-3-yl}-6-oxohexanoic acid]",organoid volume,KP^f/fC organoids; JTE-151 at 0.003 μM and 0.03 μM,"reduced organoid volume, although not at a statistically significant level"
same,organoid growth,"KP^f/fC organoids; JTE-151 at 0.3 μM, 3 μM, 6 μM, and 9 μM",significantly inhibited
same,EpCam+ tumor epithelial cells,[1]; JTE-151 90 mg/kg once per day,trend of decreased
same,EpCam+/CD133+ tumor stem cells,[1]; JTE-151 90 mg/kg once per day,trend of decreased
same,total cell counts,[1]; JTE-151 90 mg/kg once per day,trend of decreased
same,tumor mass,[1]; JTE-151 90 mg/kg once per day,trend of decreased
same,tumor growth rate,[1]; JTE-151 90 mg/kg once per day (FIG. 77),slower
same,organoid volume,[2]; 3 μM JTE-151 alone (FIG. 63),visibly reduced; also recorded: inhibited
same,organoid volume,[2]; 3 μM JTE-151 and 0.05 nM gemcitabine combination (FIG. 63),visibly reduced; also recorded: inhibited
same,organoid growth,"[2]; JTE-151 alone at 0.3 μM, 1 μM, and 3 μM (FIG. 64)",significant inhibition
same,organoid growth,"[3]; JTE-151 at 0.3 μM and more so at 3 μM, PDX1356, PDX1535, PDX202, PDX204 (FIG. 68)",significantly inhibited
same,EpCam+ tumor epithelial cells,[4]; [9],decrease in EpCam+ tumor epithelial cells was statistically significant
same,cell number,[4]; [9],reduced
same,EpCam+ tumor epithelial cells,[4]; [10],loss
same,cell number,[4]; [10],reduced
same,EpCam+ tumor epithelial cells,[4]; [11],decreased
same,EpCam+/CD133+ tumor stem cells,[4]; [11],decreased
same,change of cell number in the tumor,"[4]; 120 mg/kg JTE-151 regimen, mice that responded",varied
same,tumor mass,[4]; JTE-151 at 90 mg/kg (FIG. 58),significantly reduced
same,EpCam+ tumor epithelial cells,[4]; [12],loss
same,cell number,[4]; [12],reduced
